{"source": "patent US10807951B2", "about": "“mTORC1 modulators” (THE REGENTS OF THE UNIVERSITY OF CALIFORNIA, priority 2017, dated 2020)", "key": {"[1]": {"target": "LAMTOR5 (Homo sapiens, UniProt O43504)", "assay": "Competitive isoTOP-ABPP with purified mTORC1, Rag GTPase and Lamtor complexes", "assay_type": "binding", "description": "To identify the specific druggable hotspot targeted by YP 1-44 within the TORC1 complex, we performed a chemoproteomic study using isotopic tandem orthogonal proteolysis-enabled activity-based protein profiling (isoTOP-ABPP). IsoTOP-ABPP uses reactivity-based chemical probes to profile proteome-wide reactive, functional, and druggable hotspots directly in complex proteomes. When used in a competitive manner, small-molecule covalent ligands can be competed against the binding of reactivity-based probes to facilitate the identification of druggable hotspots targeted by lead covalent ligands (5-7) (FIG. 4A). Here, we pre-treated human purified mTORC1, Rag GTPase and Lamtor complexes with either vehicle or YP 1-44, and subsequently labeled this reconstituted system with a broad cysteine-reactive probe iodoacetamide-alkyne (IA-alkyne). Any accessible cysteine druggable hotspot would be labeled with the IA-alkyne probe in the vehicle-treated control, but the site bound by YP 1-44 would no longer accessible to IA-alkyne binding. Subsequently, we used copper-catalyzed azide-alkyne cycloaddition to append an isotopically light (for control) or heavy (for YP 1-44-treated) biotin-azide tag bearing a TEV protease recognition peptide onto probe-labeled proteins, upon which we combined the control and treated proteomes in a 1:1 ratio, followed by avidin-enrichment, tryptic digestion, and elution of probe-modified tryptic peptides by TEV protease. The resulting peptides were analyzed by LC-LC/MS/MS and light-to-heavy ratios of probe-modified peptides were quantified. We identified two cysteines within LAMTOR5, C148 and C23 that were labeled with ratios of 0.51 and 3.7, respectively. If YP 1-44 bound to a particular cysteine, we would expect a higher (>2) light-to-heavy ratio.\nIsoTOP-ABPP analyses were performed using a modified version of our previously reported method (PMID 28352901, 28186401). We pre-treated human purified mTORC1, Rag GTPase and Lamtor complexes (5 micrograms each) with DMSO vehicle or YP 1-44 (50 μM) for 30 min at 37° C. in phosphate-buffered saline (PBS), and then labeled with IA-alkyne (100 μM) for 1 h at room temperature. They were subsequently treated with isotopically light (control) or heavy (treated) TEV-biotin (100 μM) and copper-catalyzed azide-alkyne cycloaddition (CuAAC). For analysis of cysteine reactivity in primary colorectal tumor tissue, tumors were pooled and incubated with either 100 μM IA-alkyne and isotopically heavy TEV-biotin or 10 μM IA-alkyne and isotopically light TEV-biotin followed by CuAAC. Proteins were precipitated over one hour and pelleted by centrifugation at 6500×g. Proteins were washed 3 times with cold methanol then denatured and resolubilized by heating in 1.2% SDS/PBS to 85° C. for 5 min. Insoluble components were precipitated by centrifugation at 6500×g and soluble proteome was diluted in 5 ml PBS, for a final concentration of 0.2% SDS. Labeled proteins were bound to avidin-agarose beads (170 μL resuspended beads/sample, Thermo Pierce) while rotating overnight at 4° C. Bead-linked proteins were enriched by washing three times each in PBS and water, then resuspended in 6 M urea/PBS (Sigma-Aldrich) and reduced in dithiothreitol (1 mM, Sigma-Aldrich), alkylated with iodoacetamide (18 mM, Sigma-Aldrich), then washed and resuspended in 2 M urea/PBS with 1 mM calcium chloride and trypsinized overnight with 0.5 μg/μl sequencing grade trypsin (Promega). […]"}, "[2]": {"test_system": "Hela whole cell proteome", "assay": "Gel-based ABPP of IA-alkyne cysteine reactivity in Hela whole cell proteome", "description": "Thus, we performed medicinal chemistry to optimize the potency and selectivity of our initial hits by addition of further bulk to the core YP 1-44 scaffold (FIGS. 9A-9C; FIG. 5B). We initially screened these compounds against both LAMTOR5 and the Ragulator complex using gel-based ABPP methods competing the binding of these YP 1-44 analogs against IA-alkyne labeling of these proteins (FIG. 5C, FIG. 9). We also tested these compounds against Hela cell whole proteome cysteine reactivity to get initial read-outs of proteome-wide selectivity (FIGS. 9A-9C, FIG. 5D)."}, "[3]": {"test_system": "RagA and RagC", "assay": "Immunofluorescence of Rag GTPases and LAMP2 in HEK-293A cells", "assay_type": "cell-based", "details": "2 h", "description": "FIGS. 6A-6D. CC 1-44 inhibits mTORC1 signaling and activates autophagy. (FIG. 6A) Visual IP experiment monitoring binding of GFP-RagB to RFP-tagged, bead-bound Lamtor complex. […] (FIG. 6B) Immunofluorescence for endogenous RagA and LAMP2 in HEK-293A cells treated with DMSO, YP 1-44 or CC 1-44 for 2 h. […] (FIG. 6C) Immunofluorescence for endogenous mTOR and LAMP2 in HEK-293A cells treated with DMSO or CC 1-44 for 2 h. […] (FIG. 6D) Immunoblotting for autophagic markers LC3b and p62 from HEK-293A cells treated with DMSO (lane 1) or CC 1-44 (lane 3) for 2 h.\nNext, we investigated the mechanism of mTORC1 inhibition by CC-1-44 using visual IP and immunofluorescence. […] Indeed, when we visualized RagA and RagC localization in CC 1-44-treated cells, their localization to LAMP2-positive lysosomes was increased, not decreased as for YP 1-44 (FIG. 6B). This observation pointed to a different mechanism for mTORC1 inactivation by CC 1-44. Rather than disrupting the integrity of the LAMTOR-Rag assembly, CC 1-44 prevents its activation, causing it to strongly accumulate at the lysosome in a conformation that is unable to bind to mTORC1."}, "[4]": {"details": "compound 50 μM, IA-alkyne 100 μM, average of n=4"}}, "note": "Several values for one entry are separate records, joined by “and”; a condition that tells them apart may be missing. Equal values may be shown once. Entries after “also recorded” stand apart in the source; their conditions may differ. Read-outs that look alike come from different tables or passages of the source.", "data": [{"smiles": "C=CC(=O)N1CCc2c(OCc3cc(C(F)(F)F)cc(C(F)(F)F)c3)cccc21", "note": "[CC 1-44]", "values": [{"measurement": "LAMTOR5 cysteines targeted (isoTOP-ABPP)", "setting": "[1]", "result": "modified C23 and C148 in LAMTOR5"}, {"measurement": "LAMTOR5 cysteines targeted (isoTOP-ABPP)", "setting": "[1]; listed as CC-1-44", "result": "target C23 and C148 of LAMTOR5"}, {"measurement": "proteome-wide selectivity (displacement of IA-alkyne cysteine reactivity)", "setting": "[2]", "result": "selectivity at up to 1 mM; also recorded: apparent selectivity up to 1 mM"}, {"measurement": "RagA and RagC localization to LAMP2-positive lysosomes", "setting": "[3]", "result": "increased RagA clustering on lysosomes"}]}, {"smiles": "C=CC(=O)n1ccc2ccccc21", "note": "[YP 1-44]", "values": [{"measurement": "LAMTOR5 cysteines targeted (isoTOP-ABPP)", "setting": "[1]", "result": "target C23 and C148 of LAMTOR5; also recorded: C23 of LAMTOR5 was the primary site; also recorded: modified C23 and C148 in LAMTOR5"}, {"measurement": "isoTOP-ABPP light-to-heavy ratio, LAMTOR5 C23", "setting": "[1]; [4]", "result": "> 3 and 3.7"}, {"measurement": "isoTOP-ABPP light-to-heavy ratio, LAMTOR5 C148", "setting": "[1]; [4]", "result": 0.51}, {"measurement": "proteome-wide selectivity (displacement of IA-alkyne cysteine reactivity)", "setting": "[2]", "result": "non-selectivity at 100 μM and above; also recorded: not sufficiently selective at higher concentrations (>100 μM)"}, {"measurement": "RagA and RagC localization to LAMP2-positive lysosomes", "setting": "[3]", "result": "causes RagA dissociation from Lamtor; also recorded: decreased"}]}]}
